This note sets out measurements from patent US9365572B2, “PI3K and/or mTOR inhibitor” (XUANZHU PHARMA CO., LTD., priority 2012, dated 2016).

Molecules are shown by their SMILES.

Series [1] can be described thus: In vivo pharmacokinetics assay in rat. As to conditions: male, SD, plasma, rats; for Vd: read-out: Vss; for bioavailability: P.O 4 mg/kg vs I.V 2 mg/kg, read-out: F % (absolute bioavailability). From the text:
Test animals: male SD rats, weighing 190-260 g. Intravenous bolus injection (I.V.) and gavage (P.O.) administrations were each applied to three rats.
Compound 5, for both I.V and P.O administrations, was solubilized with a solution of 30% DMF+50% PEG400+20%(0.9% sodium chloride injection)(the pH being adjusted with a suitable amount of an aqueous hydrochloric acid solution (2 mol/L)).
Compound 6, for both I.V and P.O administrations, was solubilized with a solution of 30% DMF+30% PEG400+5%0.1 mol/lhydrochloric acid+[…] normal saline.
Compound 30 for I.V administration was solubilized with a solution of 30% DMF+50% PEG400+20% normal saline; Compound 30 for P.O administration was solubilized with a solution of 5% DMSO+30% polyoxyethylene castor oil+65% normal saline.
Compound 30 hydrochloride for I.V administration was solubilized with a solution of 30% DMF+50% PEG400+20% sterile water for injection.
I.V blood sampling time point: 0.083 h, 0.25 h, 0.5 h, 1 h, 2 h, 4 h, 6 h, 8 h and 24 h after the administration, P.O blood sampling time point: 0.17 h, 0.5 h, 1 h, 2 h, 4 h, 6 h, 8 h and 24 h after the administration.
About 100 μl of whole blood was taken at each time point, anticoagulated with heparin sodium, and centrifugated at 8,000 rpm in a high-speed centrifuge for 6 minutes to separate plasma, and the resulting plasma was frozen at −80° C. in a refrigerator.
The plasma sample was treated with a liquid-liquid extraction. 20 μL of plasma was taken. A solution of BEZ-235 (Novartis, Phase II) in tertbutylmethylether (600 μL, 10 ng/mL) was added as internal standard. The mixture was rotated vertically at 1500 rpm for 10 mins and then centrifugated at 12000 rpm for 5 mins. 400 μL of the supernate was taken and dried under nitrogen. The dried substance was redissolved in 200 μL methanol:water (7:3, V/V) for LC-MS/MS analysis.
Calculation Absolute bioavailability F%=[AUC]last (P.O)*Dose(I.V)/[AUC]last (I.V)*Dose(P.O)

In the next series the target is PI3Kα (Homo sapiens (Human), UniProt P42336). Briefly: PI3Kα enzymatic assay. In kind it is biochemical. The note with it: read-out: In vitro enzymatic activity (IC50) PI3Kα. How it is done: Assay 1-2: In Vitro Enzymatic Inhibitory Activity of the Present Compound
• 1.1 1-fold kinase buffer: 50 mM HEPES, pH 7.5, 10 mM MgCl2, 1 mM EGTA, 3 mM MnCl2, 0.01% Tween-20, 2 mM DTT; • 1.2 4-fold kinase solution: mTOR kinase was added to 1-fold kinase buffer to form 4-fold kinase solution with a final concentration of 2.5 nM; • 1.3 2-fold substrate and ATP solution: the substrate 4EBP1 and ATP were added to 1-fold kinase buffer to form 2-fold substrate solution with final concentration of 50 nM of 4EBP1 and 10.8 μM of ATP; • 1.4 4-fold test substance solutions: 100-fold test substance solutions in different gradient concentrations were formulated with 100% DMSO, and diluted by 25 folds with 1-fold kinase buffer to form 4-fold test substance solutions in different gradient concentrations. • 1.5 Preparation of detection solution: a detection solution containing 2-fold final concentrations of EDTA and 4EBP1 phosphorylated antibody was formulated, wherein the final concentration for EDTA was 8 mM, and the final concentration for the 4EBP phosphorylated antibody was 2 nM. 2. Procedure • 2.1 To each well of a 384-well plate was added 2.5 μL of the 4-fold test substance solutions in gradient concentrations. The replication was made. • 2.2 To each well was added 2.5 μL of 4-fold kinase solution, and then the plate was incubated for 10 mins; • 2.3 Then to each well was added 5 μL/of 2-fold substrate and ATP solution, and then the plate was incubated at room temperature for 1 hour; • 2.4 Finally, 10 μL of the detection solution was added to terminate the reaction. After 60 mins, the data Lance signal ([…]) was read from Envision. 3 Data treatment Inhibition rate (%)=[…] • wherein: • maximum refers to the reading at the DMSO control well. • minimum refers to the reading at the control well without kinase, • The data was input into Graphpad Prism 5.0 to plot and obtain the curve and IC50 value. PI3Kα Enzymatic Assay 1. […] After 15 mins, the data Lance signal ([…]) was read from Envision. 3 Data treatment Inhibition rate (%)=100−(sample value−minimum)/(maximum−minimum)×100 • wherein: • maximum refers to the reading at the control well without kinase, • minimum refers to the reading at the DMSO control well, • The data was input into Graphpad Prism 5.0 to plot and obtain the curve and IC50 value. […]

Chain of PI3Kα (P42336 whole entry): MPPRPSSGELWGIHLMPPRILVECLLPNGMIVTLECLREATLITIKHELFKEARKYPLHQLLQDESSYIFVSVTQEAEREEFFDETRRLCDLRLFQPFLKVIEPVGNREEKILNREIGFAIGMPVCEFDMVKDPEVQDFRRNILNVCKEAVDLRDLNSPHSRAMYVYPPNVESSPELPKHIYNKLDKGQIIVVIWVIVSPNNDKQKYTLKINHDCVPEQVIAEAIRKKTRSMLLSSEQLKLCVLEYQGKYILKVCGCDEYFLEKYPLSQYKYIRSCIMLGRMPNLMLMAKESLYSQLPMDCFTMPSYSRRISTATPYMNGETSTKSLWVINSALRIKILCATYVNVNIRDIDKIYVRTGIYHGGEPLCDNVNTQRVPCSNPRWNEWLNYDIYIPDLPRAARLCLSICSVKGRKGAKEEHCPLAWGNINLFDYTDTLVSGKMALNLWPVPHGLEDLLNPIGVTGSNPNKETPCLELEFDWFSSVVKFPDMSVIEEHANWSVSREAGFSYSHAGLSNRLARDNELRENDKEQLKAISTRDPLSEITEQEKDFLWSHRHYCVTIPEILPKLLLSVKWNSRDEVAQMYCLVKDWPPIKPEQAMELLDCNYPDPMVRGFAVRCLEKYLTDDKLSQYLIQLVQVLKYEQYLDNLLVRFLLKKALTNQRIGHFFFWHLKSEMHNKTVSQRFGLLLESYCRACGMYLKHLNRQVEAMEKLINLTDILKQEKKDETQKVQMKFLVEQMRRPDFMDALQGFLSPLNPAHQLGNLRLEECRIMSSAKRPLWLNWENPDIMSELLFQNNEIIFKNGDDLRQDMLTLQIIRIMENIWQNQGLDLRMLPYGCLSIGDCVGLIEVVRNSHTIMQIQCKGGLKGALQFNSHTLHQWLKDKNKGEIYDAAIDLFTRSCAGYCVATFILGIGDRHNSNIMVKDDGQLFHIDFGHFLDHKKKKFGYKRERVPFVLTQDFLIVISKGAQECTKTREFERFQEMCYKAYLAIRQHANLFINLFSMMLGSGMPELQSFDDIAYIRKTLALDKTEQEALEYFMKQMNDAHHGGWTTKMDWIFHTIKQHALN
Chain of PI3Kα (P27986 whole entry partner): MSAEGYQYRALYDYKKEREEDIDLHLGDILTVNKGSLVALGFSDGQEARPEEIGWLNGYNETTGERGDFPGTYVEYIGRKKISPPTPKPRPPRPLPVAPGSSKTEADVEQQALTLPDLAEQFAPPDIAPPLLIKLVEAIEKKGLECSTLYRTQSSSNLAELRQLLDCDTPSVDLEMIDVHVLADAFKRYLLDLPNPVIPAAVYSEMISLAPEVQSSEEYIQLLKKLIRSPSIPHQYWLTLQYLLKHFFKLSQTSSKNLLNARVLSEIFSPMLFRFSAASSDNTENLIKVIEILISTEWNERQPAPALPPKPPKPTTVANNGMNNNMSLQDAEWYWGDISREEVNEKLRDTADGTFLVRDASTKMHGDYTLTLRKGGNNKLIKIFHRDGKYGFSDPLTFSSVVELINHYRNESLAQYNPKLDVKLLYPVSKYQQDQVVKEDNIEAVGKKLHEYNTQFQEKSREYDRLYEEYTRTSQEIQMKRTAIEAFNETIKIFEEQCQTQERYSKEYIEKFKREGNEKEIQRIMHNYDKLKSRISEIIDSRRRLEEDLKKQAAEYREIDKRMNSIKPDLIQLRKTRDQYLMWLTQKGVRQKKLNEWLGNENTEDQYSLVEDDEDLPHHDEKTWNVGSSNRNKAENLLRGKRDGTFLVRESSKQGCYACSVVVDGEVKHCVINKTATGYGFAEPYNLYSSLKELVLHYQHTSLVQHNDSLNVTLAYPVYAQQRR

For the compound `Nc1ccc(-c2ccc3ncc4c(=O)[nH]c(=O)n(-c5cccc(C(F)(F)F)c5)c4c3n2)cn1` [Compound 5, 9-(6-aminopyridin-3-yl)-1-(3-(trifluoromethyl)phenyl)pyrimido[5,4-c][1,5]naphthyridine-2,4(1H,3H)-dione], in series [1] (iv, I.V, 2 mg/kg), the AUC(0-inf) (usually total exposure, with the tail of the curve extrapolated) stood at 9360 ng·h/mL; the area under the curve AUC(0-t) (commonly exposure summed from dosing to a finite time, without extrapolation to infinity) came to 9130 ng·h/mL; the clearance (usually a measure of how efficiently the substance is removed, as volume per time) is 3.5 mL/min/kg; the half-life (in general, the time needed for the level to fall by half in the phase considered) is 283 min. Further, the Vd in series [1] (iv, I.V, 2 mg/kg) was found to be 1.26 L/kg. Further, in series [1] (po), the bioavailability (commonly dose-corrected exposure relative to a reference, in per cent) was 14%. Also, in series [1] (po, P.O, 4 mg/kg), the AUC(0-inf) stood at 2590 ng·h/mL; the AUC(0-t) was 2550 ng·h/mL; the Cmax – broadly, the peak of the concentration-time curve – was determined as 205 ng/mL; the Tmax (as a rule, the time at which the peak concentration occurs) is 6 h. Besides, the half-life in series [1] (po, P.O, 4 mg/kg) was 346 min.

Regarding `O=c1[nH]c(=O)n(-c2cccc(C(F)(F)F)c2)c2c1cnc1ccc(-c3cnc4[nH]ccc4c3)nc12` [Compound 30, 9-(1H-pyrrolo[2,3-b]pyridin-5-yl)-1-(3-(trifluoromethyl)phenyl)pyrimido[5,4-c][1,5]naphthyridine-2,4(1H,3H)-dione], in series [1] (iv, I.V, 2 mg/kg), the AUC(0-inf) came to 3070 ng·h/mL, the AUC(0-t) came out at 3050 ng·h/mL, the clearance is 11 mL/min/kg and the half-life is 233 min. In addition, the Vd in series [1] (iv, I.V, 2 mg/kg) was 1.85 L/kg. Also, the bioavailability in series [1] (po) was determined as 12.8%. In series [1] (po, P.O, 4 mg/kg), the area under the curve AUC(0-inf) stood at 785 ng·h/mL, the AUC(0-t) was 654 ng·h/mL, the peak concentration (Cmax) was 54.8 ng/mL and the Tmax was 2 h. In series [1] (po, P.O, 4 mg/kg), this compound showed a half-life of 565 min. The IC50 (in general, the concentration that gives 50% inhibition) on PI3Kα is 15 nM.
